According to patent US7014858B2, “Use methods of treating acne and telangiectasia” (CollaGenex Pharmaceuticals, Inc., priority 2001, dated 2006):
Where a name gives a salt, the structure may show the parent alone.

What was measured:
[1] = Plasma antibiotic threshold levels based on steady-state pharmacokinetics
[2] = system: neutrophil chemotaxis induced by bacterial chemotactic factors; conditions: oral, total daily dose 1000 mg; cited from earlier work
acne = conditions: sub-antibiotic doses; cited from earlier work
[3] = cited from earlier work
moderate facial acne = experiment: Clinical study of doxycycline hyclate 20 mg tablets twice daily in moderate acne: lesion counts; type: in vivo, human; conditions: 20 mg tablets twice a day
Method: Effects of Doxycycline Hyclate 20 mg (Dermastat) Tablets Administered Twice Daily for the Treatment of Moderate Acne
• Multi-center, randomized double-blind, placebo-controlled; • Sixty patients enrolled (30 doxycycline and 30 placebo); • Six month duration of the study. • Patients received medication twice daily, approximately 12 hours apart (placebo and drug are identical in appearance.) Inclusion Criteria: • Healthy post-pubescent males and females (age ≧18) with moderate facial acne: • Comedones 6 to 200; • Inflammatory lesions 10 to 75 (papules and pustules, less than or equal to 5 nodules); • Females tested negative for pregnancy and were non-lactating; • Females maintained appropriate birth control; • Patients signed an Informed Consent Form; • No Accutane treatment for 6 months prior to baseline. Exclusion Criteria: • Use of hormonal contraception 6 months prior to baseline or during study; • Use of topical acne treatments within 6 weeks of baseline or during study; • Use of systemic antibiotics within 6 weeks of baseline or during study; • Use of investigational drugs within 90 days of baseline; • Use of any acne treatments during study. […]

## CN(C)[C@@H]1C(O)=C(C(N)=O)C(=O)[C@@]2(O)C(O)=C3C(=O)c4c(O)cccc4[C@@](C)(O)[C@H]3C[C@@H]12 [tetracycline]
[1]
  plasma antibiotic threshold level: 0.5 µg/mL
[2]
  neutrophil chemotaxis: inhibition
acne
  clinical effect on acne: no clinical effect

## CN(C)[C@@H]1C(O)=C(C(N)=O)C(=O)[C@@]2(O)C(O)=C3C(=O)c4c(O)cccc4[C@@](C)(O)[C@H]3C[C@@H]12 [tetracycline HCl]
[3]; 250 mg every six hours over a twenty-four hour period
  peak plasma concentration: approximately 3 μg/ml
[3]; 500 mg every six hours over a twenty-four hour period
  serum concentration level: 4000 to 5000 ng/mL

## CCO.C[C@H]1c2cccc(O)c2C(O)=C2C(=O)[C@]3(O)C(O)=C(C(N)=O)C(=O)[C@@H](N(C)C)[C@@H]3[C@@H](O)[C@@H]21.C[C@H]1c2cccc(O)c2C(O)=C2C(=O)[C@]3(O)C(O)=C(C(N)=O)C(=O)[C@@H](N(C)C)[C@@H]3[C@@H](O)[C@@H]21.Cl.Cl.O [doxycycline hyclate]
Moderate facial acne
  reduction in the number of comedones (in words): significant reduction

## CN(C)c1ccc(O)c2c1C[C@H]1C[C@H]3[C@H](N(C)C)C(O)=C(C(N)=O)C(=O)[C@@]3(O)C(O)=C1C2=O [minocycline HCl]
[3]; single dose of two 100 mg tablets, adult humans, over a period of an hour
  minocycline serum levels (range): 0.74 to 4.45 µg/mL
[3]; single dose of two 100 mg tablets, adult humans
  minocycline serum level (average): 2.24 µg/mL
